Data: publication PMC11952846, “The sterol-regulating human ARV1 binds cholesterol and phospholipids through its conserved ARV1 homology domain” (The Journal of Biological Chemistry, 2025)
Positions count from the first letter of the chain named. Blank lines part the entries; values can stand above or below the molecule they belong to.

Assays:
GST-Annexin A2 [1] = biological target: T1, GST-Annexin A2 (Homo sapiens, UniProt P07355); assay: Lipid overlay far western (positive control protein); format: binding
T1 sequence (P07355 whole entry): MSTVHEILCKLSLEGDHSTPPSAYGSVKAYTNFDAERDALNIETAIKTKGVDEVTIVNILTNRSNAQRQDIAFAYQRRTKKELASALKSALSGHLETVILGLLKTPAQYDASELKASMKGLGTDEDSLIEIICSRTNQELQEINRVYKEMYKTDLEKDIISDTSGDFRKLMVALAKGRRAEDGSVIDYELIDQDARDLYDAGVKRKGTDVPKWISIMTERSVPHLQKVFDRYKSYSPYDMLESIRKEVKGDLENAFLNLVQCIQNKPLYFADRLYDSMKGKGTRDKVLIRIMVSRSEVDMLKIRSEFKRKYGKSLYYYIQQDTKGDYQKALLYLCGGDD
Experimental: (§1) Lipid overlays were blocked in TBST-BSA (100 mM Tris–HCl buffer, pH 7.5, 150 mM NaCl, 0.5% Tween 20, 3% bovine serum albumin) for 1 h and subsequently washed eight separate times with TBST for 2 min each. Overlays were incubated with 0.5 μg/ml GST-tagged or 6XHIS-tagged proteins in 3% TBST-BSA buffer containing 0.1% Triton X-100, for 1 h at room temperature and washed as above. Overlays were incubated with either anti-GST or anti-6XHIS monoclonal antibodies at a 1:1000 dilution in TBST-BSA for 1 h at room temperature followed by eight washes in TBST. Overlays were visualized using Immobilon Western Chemiluminescent horseradish peroxidase substrate and protein–lipid interaction was detected using a GE ImageQuant LAS 3000 imager.

6XHIS-ARV1-N98 C34/C37A = biological target: T2, 6XHIS-ARV1-N98 C34/C37A (Homo sapiens, UniProt Q9H2C2, C34A/C37A); assay: Lipid overlay far western, site-directed mutant; format: binding; settings: compared to the ARV1-N98 protein
T2 construct: Expressing amino-terminal 98 amino acids of ARV1; made in house; host or cells: E. coli BL21 (pET-28a(+))
T2 sequence (Q9H2C2 1-98 C34A/C37A): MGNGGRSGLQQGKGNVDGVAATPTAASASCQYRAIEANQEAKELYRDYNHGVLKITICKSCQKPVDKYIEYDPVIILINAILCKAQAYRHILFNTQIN
Experimental: as §1

6XHIS-ARV1-N98 K67A = biological target: T3, 6XHIS-ARV1-N98 K67A (Homo sapiens, UniProt Q9H2C2, K67A); assay: Lipid overlay far western, site-directed mutant; format: binding; settings: compared to the ARV1-N98 protein
T3 construct: Expressing amino-terminal 98 amino acids of ARV1; made in house; host or cells: E. coli BL21 (pET-28a(+))
T3 sequence (Q9H2C2 1-98 K67A): T2 sequence (Q9H2C2 1-98 C34A/C37A) with A34C, A37C, K67A
Experimental: as §1

6XHIS-ARV1-N98 K84A = biological target: T4, 6XHIS-ARV1-N98 K84A (Homo sapiens, UniProt Q9H2C2, K84A); assay: Lipid overlay far western, site-directed mutant; format: binding; settings: compared to the ARV1-N98 protein
T4 construct: Expressing amino-terminal 98 amino acids of ARV1; made in house; host or cells: E. coli BL21 (pET-28a(+))
T4 sequence (Q9H2C2 1-98 K84A): T2 sequence (Q9H2C2 1-98 C34A/C37A) with A34C, A37C, K84A
Experimental: as §1

GST-ARV1-N70 = biological target: T5, GST-ARV1-N70 (Homo sapiens, UniProt Q9H2C2); assay: Lipid overlay far western, truncation; format: binding; settings: compared to ARV1-N98
T5 construct: Expresses amino-terminal 70 amino acids of ARV1; made in house; host or cells: E. coli BL21 (pGEX-4T1)
T5 sequence (Q9H2C2 1-70): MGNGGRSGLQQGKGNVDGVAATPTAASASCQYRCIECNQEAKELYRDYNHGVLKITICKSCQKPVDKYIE
Experimental: as §1

GST-ARV1-N50 = biological target: T6, GST-ARV1-N50 (Homo sapiens, UniProt Q9H2C2); assay: Lipid overlay far western, truncation; format: binding; settings: compared to ARV1-N98 / ARV1-N70
T6 construct: Expresses amino-terminal 50 amino acids of ARV1; made in house; host or cells: E. coli BL21 (pGEX-4T1)
T6 sequence (Q9H2C2 1-50): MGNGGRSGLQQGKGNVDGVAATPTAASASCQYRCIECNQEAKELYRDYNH
Experimental: as §1

[2] = biological target: T7, GST-ARV1 (full-length ARV1) (Homo sapiens, UniProt Q9H2C2); assay: Lipid overlay far western; format: binding
T7 construct: Expresses full length ARV1; made in house; host or cells: E. coli BL21 (pGEX-4T1)
T7 sequence (Q9H2C2 1-271): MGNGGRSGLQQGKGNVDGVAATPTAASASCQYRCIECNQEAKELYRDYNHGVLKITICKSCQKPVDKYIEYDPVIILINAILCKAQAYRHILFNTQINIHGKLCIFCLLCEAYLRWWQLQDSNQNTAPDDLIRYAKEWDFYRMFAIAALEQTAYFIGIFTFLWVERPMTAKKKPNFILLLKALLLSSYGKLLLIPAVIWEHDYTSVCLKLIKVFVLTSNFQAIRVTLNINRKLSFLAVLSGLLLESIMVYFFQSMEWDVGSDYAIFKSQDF
Experimental: as §1

GST-ARV1-N98 = biological target: T8, GST-ARV1-N98 (Homo sapiens, UniProt Q9H2C2); assay: Lipid overlay far western; format: binding
T8 construct: Expresses amino-terminal 98 amino acids of ARV1; made in house; host or cells: E. coli BL21 (pGEX-4T1)
T8 sequence (Q9H2C2 1-98): T2 sequence (Q9H2C2 1-98 C34A/C37A) with A34C, A37C
Experimental: as §1

[3] = biological target: T7, GST-ARV1 (full-length ARV1); assay: Protein-lipid liposome binding assay (ultracentrifugation, Western blot)
Experimental: (§2) Lyophilized lipids were reconstituted in chloroform at 10 mg/ml and stored in glass tubes with Teflon tops at −20 °C until use. One milliliter of 10 mg/ml stock was dried under a stream of nitrogen in a glass tube until a lipid cake/film was formed. The lipid cake was then rehydrated in BLT rehydration buffer (5 mM Tris/HCl, pH 7.4, containing 150 mM NaCl) to a concentration of 1 mg/ml. Lipid suspensions were subjected to three freeze/thaw cycles using a dry ice ethanol/[…] water bath to encapsulate the buffer and improve liposome formation. The suspension and lipid extruder were equilibrated to temperature for 10 min and liposomes were extruded using […] polycarbonate membranes (Avestin). Liposomes were made by mixing stock lipid PL (1 mg/ml) with PC (10 mg/ml).
(§3) Cholesterol composition liposomes were rehydrated with cholesterol rehydration buffer (10 mM Hepes, pH 7.4, containing 150 mM KCl).
(§4) Liposomes were serial diluted in floatation buffer (100 mM NaCl, 2 mM EDTA, pH 5.5) to a final concentration of 0.1 mg/ml. Nine hundred microliters of liposome solution was placed in clear ultracentrifuge tubes and mixed with 100 μl of 0.01 μg/ml of protein. The liposome/protein solution was incubated at room temperature for 1 h with occasional shaking. An initial 100 μl of liposome/protein solution (liposomes) was removed and the remaining 900 μl was centrifuged at 50,000g for 20 min at 4 °C. The pellet was resuspended in 800 μl of fresh floatation buffer, centrifuged as above, and 800 μl of supernatant was removed (wash 1). This was repeated a second time and again 800 μl of supernatant was removed (wash 2). The final pellet was resuspended in 100 μl of floatation buffer plus SDS treatment buffer (pellet). Thirty microliters of each fraction was run on a 15% SDS-PAGE gel and probed with an anti-GST monoclonal antibody at a 1:1500 dilution.

[4] = biological target: T9, GST-ARV1-N98 (N-terminal 98 amino acids, AHD) (Homo sapiens, UniProt Q9H2C2); assay: as above
T9 construct: Expresses amino-terminal 98 amino acids of ARV1; made in house; host or cells: E. coli BL21 (pGEX-4T1)
T9 sequence (Q9H2C2 1-98): T2 sequence (Q9H2C2 1-98 C34A/C37A) with A34C, A37C
Experimental: as §2, §3, §4

GST-Annexin A2 [5] = biological target: T1, GST-Annexin A2; assay: Protein-lipid liposome binding assay (positive control protein); settings: protein detected in final pellet
Experimental: as §2, §4

6XHIS-ARV1-N98 = biological target: T10, 6XHIS-ARV1-N98 (Homo sapiens, UniProt Q9H2C2); assay: HTRF phospholipid lipid-binding assay; settings: biotinylated lipid (Bio-PL) titrated, 0.75 μM protein; lipid labels mean the biotinylated lipids
T10 construct: made in house; host or cells: E. coli BL21
T10 sequence (Q9H2C2 1-98): T2 sequence (Q9H2C2 1-98 C34A/C37A) with A34C, A37C
From the text: An HTRF assay was developed for 6XHIS-ARV1-N98-lipid binding. HTRF measures analyte interactions through fluorescence resonance energy transfer technology and time-resolved measurements ([53]). The interaction between two molecules can be quantified through binding each individual molecule involved with a fluorescent label and then analyzing the transfer of energy between the initial donor fluorophore and the secondary acceptor fluorophore. Following excitation of the first fluorophore, transfer of energy can only occur if the molecules bound with the fluorescent tags are within proximity to each other.
Assays were plated in 384-well flat bottom microplates (Greiner Bio, catalog #784075-25). Proteins were diluted using binding buffer (20 mM Hepes buffer, pH 7.2, containing 0.1% BSA, and 0.01% Tween20) to a stock concentration of 0.75 μM, and biotinylated phospholipids were dispensed, dried under nitrogen gas, and resuspended in binding buffer to a stock concentration of 50 μM. The lipid stock solution was diluted by 1:2 for a series of 12 serial dilutions. For the assay, in sequential order, 6 μl of binding buffer was loaded into the plate in triplicate for each dilution of phospholipid. To this, 2 μl of 0.75 μM 6XHIS-ARV1-N98 was added, followed by 2 μl of biotinylated phospholipid. Immediately following each addition loaded into the plate, the plate was centrifuged for 1 min at 1000 rpm to bring the contents to the bottom of the well. Next, detection antibodies were mixed with detection buffer (20 mM Hepes buffer, pH 8.5, containing 0.01% BSA and 200 mM KF). […] Plates were read on a PerkinElmer EnVision Xcite Multilabel plate reader.
Curves were logarithmically transformed and normalized to a common scale before being fit with a nonlinear regression of the agonist against the normalized response. […] For phospholipid competition analysis, IC50; M values were determined using nonlinear regression of the inhibitor against normalized response.

[6] = lipid-embedded membrane strips, incl. sphingolipid strip
[7] = PIP lipid membrane strip, 100pmol-1.56pmol per spot
[8] = liposomes containing 10% and 20% cholesterol
[9] = liposomes containing 30 to 50% cholesterol
[10] = protein detected in final pellet

Molecule: CCCCCC(=O)O[C@H](COC(=O)CCCCCNC(=O)CCCC[C@@H]1SC[C@@H]2NC(=O)N[C@@H]21)COP(=O)(O)O[C@@H]1[C@H](O)[C@H](O)[C@@H](OP(=O)(O)O)[C@H](OP(=O)(O)O)[C@H]1O [PI(4,5)P2, reference compound]
lipid-protein interaction (GST-Annexin A2 [1]; [6]): interacted | change of lipid-protein interaction (6XHIS-ARV1-N98 C34/C37A): enhanced interactions | change of lipid-protein interaction (6XHIS-ARV1-N98 K67A): increased interactions | change of lipid-protein interaction (6XHIS-ARV1-N98 K84A): increased interactions

Molecule: CCCCCC(=O)O[C@H](COC(=O)CCCCCNC(=O)CCCC[C@@H]1SC[C@@H]2NC(=O)N[C@@H]21)COP(=O)(O)O[C@H]1[C@H](O)[C@@H](OP(=O)(O)O)[C@H](O)[C@@H](O)[C@H]1O [PI(5)P, reference compound]
change of lipid-protein interaction (GST-ARV1-N70): reduced interactions | change of lipid-protein interaction (GST-ARV1-N50): eliminated | lipid-protein interaction (GST-Annexin A2 [1]; [7]): strongest interactions | lipid-protein interaction [2, 7]: interacted | lipid-protein interaction (GST-ARV1-N98; [7]): interacted

lipid-protein interaction [2, 6]: not seen | lipid-protein interaction (GST-ARV1-N98; [6]): not seen | binding to PC:Chol liposomes [3, 8]: bound | binding to PC:Chol liposomes [3, 9]: neither ARV1 nor ARV1-N98 associated | binding to PC:Chol liposomes [4, 8]: bound | binding to PC:Chol liposomes [4, 9]: neither ARV1 nor ARV1-N98 associated
Molecule: CC(C)CCC[C@@H](C)[C@H]1CC[C@H]2[C@@H]3CC=C4C[C@@H](O)CC[C@]4(C)[C@H]3CC[C@]12C [cholesterol]

lipid-protein interaction [2, 6]: not seen | lipid-protein interaction (GST-ARV1-N98; [6]): not seen
Molecule: CCCCCCCC/C=C\CCCCCCCC(=O)OC[C@@H](O)COP(=O)(O)O [lyso-phosphatidic acid]

lipid-protein interaction [2, 6]: not | lipid-protein interaction (GST-ARV1-N98; [6]): not
Molecule: CCCCCCCCCCCCCC[C@@H](O)[C@@H](O)[C@@H](N)CO [phytosphingosine]

Molecule: CCCCCC(=O)O[C@H](COC(=O)CCCCCNC(=O)CCCC[C@@H]1SC[C@@H]2NC(=O)N[C@@H]21)COP(=O)(O)O[C@@H]1[C@H](O)[C@H](OP(=O)(O)O)[C@@H](O)[C@H](O)[C@H]1O [reference compound]
change of lipid-protein interaction (GST-ARV1-N70): reduced interactions | change of lipid-protein interaction (GST-ARV1-N50): enhanced | lipid-protein interaction (GST-Annexin A2 [1]; [7]): strongest interactions | lipid-protein interaction [2, 7]: interacted | lipid-protein interaction (GST-ARV1-N98; [7]): interacted

lipid-protein interaction [2, 6]: not | lipid-protein interaction (GST-ARV1-N98; [6]): not
Molecule: CCCCCCCCCCCCC/C=C/[C@@H](O)[C@@H](N)COP(=O)(O)O [sphingosine-1-phosphate]

lipid-protein interaction [2, 6]: not | lipid-protein interaction (GST-ARV1-N98; [6]): not
Molecule: CCCCCCCCCCCCC/C=C/[C@@H](O)[C@@H](N)CO [sphingosine]

lipid-protein interaction (GST-Annexin A2 [1]; [6]): interacted | change of lipid-protein interaction (6XHIS-ARV1-N98 K67A): increased interactions | change of lipid-protein interaction (6XHIS-ARV1-N98 K84A): increased interactions
Molecule: PI(3,4,5)P3

lipid-protein interaction [2, 6]: not | lipid-protein interaction (GST-ARV1-N98; [6]): not
Molecule: ceramide

lipid-protein interaction [2, 6]: not seen | lipid-protein interaction (GST-ARV1-N98; [6]): not seen
Molecule: lyso-phosphatidylcholine

binding to PC:PL liposomes (GST-Annexin A2 [5]): not | EC50 (6XHIS-ARV1-N98): 12 µM | binding to PC:PL liposomes [3, 10]: not | binding to PC:PL liposomes [4, 10]: not
Molecule: phosphatidylinositol [PI, reference compound]
